Data as given in PMC12016938, “A small molecule PKCε inhibitor reduces hyperalgesia induced by paclitaxel or opioid withdrawal” (JCI Insight, 2025).
“And” between values parts separate entries of the source, which are not always exact repeats. Equal values may be shown once. Read-outs that look alike come from different tables or passages of the source.

Legend:
[1] = tested on: morphine self-administration;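 further: rats trained to self-administer intravenous morphine at 500 µg/kg per infusion, first under FR1 then FR3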
[2] = tested on: hyperalgesia induced by morphine withdrawal; experiment: Prevention of hyperalgesia due to morphine withdrawal, von Frey SUDO; assay type: in vivo, C57BL/6J mice; settings: for von Frey filament number that led to paw withdrawal: prevention, individual mouse
Description: We next investigated if CP612 prevents hyperalgesia induced by withdrawal from repeated administration of morphine, in male and female C57BL/6J mice. […] These findings indicate that a single dose of the PKCε inhibitor can prevent hyperalgesia induced by opioid withdrawal.

What does the source list for `N[C@H](CNC(=O)C1(c2ccc(Cl)cc2)CCCC1)c1ccc(C(=O)Nc2ccncc2)cc1` [CP612]?
D5 Inf (FR3) ([1]; morphine infusions, Day 5, fixed ratio 3, mean of CP612 group, n=7): 6.43; D6 Inf (FR3) ([1]; morphine infusions, Day 6, fixed ratio 3, mean of CP612 group, n=7): 7.14; D7 Inf (FR3) ([1]; morphine infusions, Day 7, fixed ratio 3, mean of CP612 group, n=7): 7.71; D8 Inf (FR3) ([1]; morphine infusions, Day 8, fixed ratio 3, mean of CP612 group, n=7): 9.57; D9 Inf (FR3) ([1]; morphine infusions, Day 9, fixed ratio 3, mean of CP612 group, n=7): 10.29; D10 Inf (PR1) ([1]; morphine infusions, Day 10, progressive ratio test PR1, CP612 6 hours prior, group mean, n=7): 8.86; D12 Inf (PR2_WD) ([1]; morphine infusions, Day 12, progressive ratio test PR2 in withdrawal, CP612 6 hours prior, group mean, n=6): 8.17; D13 Inf (PR3_Nal) ([1]; morphine infusions, Day 13, progressive ratio test PR3_Nal, CP612 6 hours prior, group mean, n=7): 7.29; Inf (avg all) ([1]; morphine infusions, average of all self-administration days D1-D9, mean of CP612 group, n=7): 9.33; Inf (avg last 3 days) ([1]; morphine infusions, average of last 3 days, mean of CP612 group, n=7): 9.19; D12 Inf (PR2_WD) ([1]; morphine infusions, progressive ratio session PR2_WD, day 12, individual rats): 11 and 7 and 8; D1 Inf (FR1) ([1]; morphine infusions, self-administration Day 1, fixed ratio 1, mean of CP612 group, n=7): 10.29; D1 Latency (FR1) ([1]; time to first infusion, Day 1, fixed ratio 1, mean of CP612 group, n=7): 3.00 min; D2 Latency (FR1) ([1]; time to first infusion, Day 2, fixed ratio 1, mean of CP612 group, n=7): 1.98 min; D3 Latency (FR1) ([1]; time to first infusion, Day 3, fixed ratio 1, mean of CP612 group, n=7): 0.73 min; D4 Latency (FR3) ([1]; time to first infusion, Day 4, fixed ratio 3, mean of CP612 group, n=7): 0.44 min; D5 Latency (FR3) ([1]; time to first infusion, Day 5, fixed ratio 3, mean of CP612 group, n=7): 0.20 min; D6 Latency (FR3) ([1]; time to first infusion, Day 6, fixed ratio 3, mean of CP612 group, n=7): 0.53 min; D7 Latency (FR3) ([1]; time to first infusion, Day 7, fixed ratio 3, mean of CP612 group, n=7): 0.53 min; D8 Latency (FR3) ([1]; time to first infusion, Day 8, fixed ratio 3, mean of CP612 group, n=7): 0.46 min; D9 Latency (FR3) ([1]; time to first infusion, Day 9, fixed ratio 3, mean of CP612 group, n=7): 0.44 min; D10 Latency (PR1) ([1]; time to first infusion, Day 10, PR1, CP612 6 hours prior, group mean, n=7): 0.60 min; D12 Latency (PR2_WD) ([1]; time to first infusion, Day 12, PR2 withdrawal, CP612 6 hours prior, group mean, n=6): 1.44 min; D13 Latency (PR3_Nal) ([1]; time to first infusion, Day 13, PR3_Nal, CP612 6 hours prior, group mean, n=7): 0.75 min; D9 Latency (avg all) ([1]; time to first infusion, average of all days D1-D9, mean of CP612 group, n=7): 0.92 min; D9 Latency (avg last 3 days) ([1]; time to first infusion, average of last 3 days, mean of CP612 group, n=7): 0.48 min; Effect on pain thresholds after repeated saline ([2]; male and female mice, CP612 20 mg/kg i.p.): not modified; Effect on development of morphine-withdrawal hyperalgesia ([2]; male and female mice, CP612 20 mg/kg i.p. 6 hours after last morphine injection): prevented; von Frey filament number that led to paw withdrawal ([2]; female mice, Morphine schedule, 1week): 9 and 8; von Frey filament number that led to paw withdrawal ([2]; female mice, Morphine schedule, 2weeks): 8.75; von Frey filament number that led to paw withdrawal ([2]; female mice, Morphine schedule, 3weeks): 8.5; von Frey filament number that led to paw withdrawal ([2]; female mice, Morphine schedule, 4weeks): 8.5; von Frey filament number that led to paw withdrawal ([2]; female mice, Morphine schedule, 24h): 7.5 and 9.5; von Frey filament number that led to paw withdrawal ([2]; female mice, Morphine schedule, Baseline): 9 and 9.5; von Frey filament number that led to paw withdrawal ([2]; female mice, Saline schedule, 1week): 9.5 and 9 and 8.5 and 10; von Frey filament number that led to paw withdrawal ([2]; female mice, Saline schedule, 2weeks): 9.5 and 9 and 10; von Frey filament number that led to paw withdrawal ([2]; female mice, Saline schedule, 3weeks): 9 and 9.5 and 10; von Frey filament number that led to paw withdrawal ([2]; female mice, Saline schedule, 4weeks): 9.5 and 9 and 10; von Frey filament number that led to paw withdrawal ([2]; female mice, Saline schedule, 24h): 9 and 8 and 8.5 and 10; von Frey filament number that led to paw withdrawal ([2]; female mice, Saline schedule, Baseline): 9.5 and 8.5 and 9 and 10 and 10.5; von Frey filament number that led to paw withdrawal ([2]; male mice, Morphine schedule, 1week): 9.5 and 7.5 and 8.5 and 9 and 8 and 10; von Frey filament number that led to paw withdrawal ([2]; male mice, Morphine schedule, 2weeks): 9 and 7.5 and 8 and 9.5 and 9.25 and 7.75 and 10.5; von Frey filament number that led to paw withdrawal ([2]; male mice, Morphine schedule, 3weeks): 8 and 9 and 9.5 and 10.5; von Frey filament number that led to paw withdrawal ([2]; male mice, Morphine schedule, 4weeks): 8 and 7.5 and 9.5 and 9 and 11 and 10; von Frey filament number that led to paw withdrawal ([2]; male mice, Morphine schedule, 24h): 8.5 and 7.5 and 9.5 and 8 and 7 and 10.5; von Frey filament number that led to paw withdrawal ([2]; male mice, Morphine schedule, Baseline): 7.5 and 7 and 8.5 and 9.5 and 9; von Frey filament number that led to paw withdrawal ([2]; male mice, Saline schedule, 1week): 9 and 8.5 and 9.5 and 10.5 and 10; von Frey filament number that led to paw withdrawal ([2]; male mice, Saline schedule, 2weeks): 6.5 and 7 and 9 and 8.5 and 8 and 9.5 and 10; von Frey filament number that led to paw withdrawal ([2]; male mice, Saline schedule, 3weeks): 9.5 and 9 and 10; von Frey filament number that led to paw withdrawal ([2]; male mice, Saline schedule, 4weeks): 8 and 6.5 and 6 and 9 and 7.5 and 9.5 and 10 and 10.5; von Frey filament number that led to paw withdrawal ([2]; male mice, Saline schedule, 24h): 7.5 and 7 and 9 and 9.5 and 10; von Frey filament number that led to paw withdrawal ([2]; male mice, Saline schedule, Baseline): 7.5 and 8.5 and 6.5 and 8 and 9 and 9.5 and 10.5; Duration of prevention of hyperalgesia after administration ([2]; single dose CP612 20 mg/kg i.p.): up to 4 weeks
